Measurements taken from patent US20240101600A1, “FIBROBLAST GROWTH FACTOR RECEPTOR (FGFR)-TARGETING ANTAGONISTIC SHORT PEPTIDE” (WENZHOU MEDICAL UNIVERSITY, priority 2019, published 2024).
Where no end group is shown, it is not given here.

How the values were obtained:
[1] = Half-life of peptides in human plasma (incubation, SPE, liquid chromatography); assay type: in vitro ADME; settings: compared with precursor peptide P9
[2] = test system: gastric cancer cells SGC-7901; test: Flow cytometry cell cycle analysis of SGC-7901 cells; assay type: cell-based; settings: P48 with bFGF, 24 h
FGFR1 = FGFR1 (Homo sapiens, UniProt P11362); test: Flow cytometry binding of P48 to FGFR1 in SGC-7901 cells; assay type: cell-based; design: endogenous in cells; host or cells: Hela229; NCI-H460; SGC-7901; MGC-803
Procedure: Human embryonic kidney cells HEK-293, fibroblasts MEF-WT and Balb/c 3T3 were inoculated into 6-well plates, respectively. After growing adherently overnight, the cells were pretreated with P48 for 10 min or with AZD4547/PD173074/SSR for 2 h, and incubated with bFGF for 15 min. […] The experimental procedure was as follows: MEF-WT and MEFKO (FGFR1-FGFR2-FRS2a) cells (1×10^6 cells/ml) were inoculated in a 35 mm petri dish. After being adhered to the wall of petri dish overnight, the cells were washed with PBS; FITC-conjugated P48 (1, 10, 100 and 1000 nM) was added, and the cells were incubated in an incubator for 30 min. The cells were immobilized with 1% paraformaldehyde in the dark and washed with PBS. An expression level of the FITC was measured at a fluorescence channel 1 (FL-1) (530 nm), with an excitation wavelength of 488 nm. Data analysis was conducted using CellQuest software (Becton Dickinson).
Cervical cancer cells Hela229, melanoma B16-F10, lung cancer cells NCI-H460, gastric cancer cells SGC-7901 and MGC-803 were inoculated into 6-well plates, respectively. After growing adherently overnight, the cells were pretreated with P48 for 10 min or with AZD4547/SSR for 2 h, and incubated with bFGF for 15 min or with KGF for 20 min.

Chain of FGFR1 (P11362 22-822): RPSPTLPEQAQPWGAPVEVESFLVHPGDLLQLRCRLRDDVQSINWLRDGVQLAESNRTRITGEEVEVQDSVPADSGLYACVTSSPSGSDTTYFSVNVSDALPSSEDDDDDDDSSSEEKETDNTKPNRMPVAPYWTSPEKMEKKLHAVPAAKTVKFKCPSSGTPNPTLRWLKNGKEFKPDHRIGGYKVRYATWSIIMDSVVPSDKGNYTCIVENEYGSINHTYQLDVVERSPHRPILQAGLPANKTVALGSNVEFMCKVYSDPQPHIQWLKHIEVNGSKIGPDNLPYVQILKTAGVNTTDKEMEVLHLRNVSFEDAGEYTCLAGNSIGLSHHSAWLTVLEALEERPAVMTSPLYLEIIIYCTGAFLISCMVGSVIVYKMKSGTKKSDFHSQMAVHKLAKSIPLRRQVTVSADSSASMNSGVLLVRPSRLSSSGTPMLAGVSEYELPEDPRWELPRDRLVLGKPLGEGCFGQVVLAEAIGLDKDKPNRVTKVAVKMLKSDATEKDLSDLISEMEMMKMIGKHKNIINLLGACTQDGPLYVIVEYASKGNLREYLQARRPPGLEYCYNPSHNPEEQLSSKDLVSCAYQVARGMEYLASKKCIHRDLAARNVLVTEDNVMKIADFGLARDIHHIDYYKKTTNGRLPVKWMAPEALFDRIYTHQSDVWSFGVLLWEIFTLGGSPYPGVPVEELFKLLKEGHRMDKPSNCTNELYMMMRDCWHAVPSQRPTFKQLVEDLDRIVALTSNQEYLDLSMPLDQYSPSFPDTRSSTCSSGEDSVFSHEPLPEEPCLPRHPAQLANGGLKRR

half-life in plasma [1]: relatively prolonged half-life
binding to the FGFR1 site of the cell membrane surface (FGFR1): desirable binding effect
Substance: SPPRYPGGGS-NH2 [P48, Ser-Pro-Pro-Arg-Tyr-Pro-Gly-Gly-Gly-Ser-NH2]
cell cycle arrest [2]: can block gastric cancer cells SGC-7901 in G0/G1 phase in a concentration-dependent manner
